Measured values taken from patent US11623932B2, “Protein degraders and uses thereof” (Kymera Therapeutics, Inc., priority 2017, dated 2023).

Key:
[1] = biological target: Untagged CRBN-DDB1 complex (Homo sapiens (Human), UniProt Q96SW2); assay: Fluorescence polarization (FP) assay, displacement of Cy5-labeled thalidomide; format: binding; conditions: Cy5-labeled thalidomide 20 nM, 10 min at room temperature
Experimental: The final solution contained 50 mM HEPES, 200 mM NaCl and 2 mM DTT, pH 7.5. The mixtures were incubated at room temperature for 10 min. The FP signals were recorded on an EnVision plate reader (Perkin Elmer) using the following settings: Excitation Light (%): 100; Measurement Height: 12; G-Factor: 1; Detector Gain 1: 500; Detector Gain 2: 500; Flash Number: 100. Dose-dependent loss of FP signals was fitted by four-parameter Logistic Function using GraphPad Prism 7.0 and the IC50 values were reported for each compound.
The compound numbers correspond to the compound numbers in the examples.

BRD4 = BRD4 (Homo sapiens (Human), UniProt O60885); assay: BRD4 degradation in NAMALWA cells, Western Blot; format: cell-based; conditions: 2 h

Chain of Untagged CRBN-DDB1 complex (Q96SW2 whole entry): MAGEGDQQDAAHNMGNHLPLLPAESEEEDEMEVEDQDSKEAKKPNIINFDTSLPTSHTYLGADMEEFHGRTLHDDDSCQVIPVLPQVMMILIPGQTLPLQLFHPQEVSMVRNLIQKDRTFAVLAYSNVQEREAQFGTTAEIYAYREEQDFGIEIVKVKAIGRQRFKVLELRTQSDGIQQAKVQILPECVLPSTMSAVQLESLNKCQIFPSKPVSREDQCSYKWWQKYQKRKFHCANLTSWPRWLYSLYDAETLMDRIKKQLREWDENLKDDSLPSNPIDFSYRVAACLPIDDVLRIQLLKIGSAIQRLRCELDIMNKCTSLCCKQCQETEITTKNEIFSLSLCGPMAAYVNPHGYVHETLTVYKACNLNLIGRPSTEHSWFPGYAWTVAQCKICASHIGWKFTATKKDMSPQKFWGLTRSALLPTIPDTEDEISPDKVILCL
Chain of Untagged CRBN-DDB1 complex (Q16531 whole entry partner): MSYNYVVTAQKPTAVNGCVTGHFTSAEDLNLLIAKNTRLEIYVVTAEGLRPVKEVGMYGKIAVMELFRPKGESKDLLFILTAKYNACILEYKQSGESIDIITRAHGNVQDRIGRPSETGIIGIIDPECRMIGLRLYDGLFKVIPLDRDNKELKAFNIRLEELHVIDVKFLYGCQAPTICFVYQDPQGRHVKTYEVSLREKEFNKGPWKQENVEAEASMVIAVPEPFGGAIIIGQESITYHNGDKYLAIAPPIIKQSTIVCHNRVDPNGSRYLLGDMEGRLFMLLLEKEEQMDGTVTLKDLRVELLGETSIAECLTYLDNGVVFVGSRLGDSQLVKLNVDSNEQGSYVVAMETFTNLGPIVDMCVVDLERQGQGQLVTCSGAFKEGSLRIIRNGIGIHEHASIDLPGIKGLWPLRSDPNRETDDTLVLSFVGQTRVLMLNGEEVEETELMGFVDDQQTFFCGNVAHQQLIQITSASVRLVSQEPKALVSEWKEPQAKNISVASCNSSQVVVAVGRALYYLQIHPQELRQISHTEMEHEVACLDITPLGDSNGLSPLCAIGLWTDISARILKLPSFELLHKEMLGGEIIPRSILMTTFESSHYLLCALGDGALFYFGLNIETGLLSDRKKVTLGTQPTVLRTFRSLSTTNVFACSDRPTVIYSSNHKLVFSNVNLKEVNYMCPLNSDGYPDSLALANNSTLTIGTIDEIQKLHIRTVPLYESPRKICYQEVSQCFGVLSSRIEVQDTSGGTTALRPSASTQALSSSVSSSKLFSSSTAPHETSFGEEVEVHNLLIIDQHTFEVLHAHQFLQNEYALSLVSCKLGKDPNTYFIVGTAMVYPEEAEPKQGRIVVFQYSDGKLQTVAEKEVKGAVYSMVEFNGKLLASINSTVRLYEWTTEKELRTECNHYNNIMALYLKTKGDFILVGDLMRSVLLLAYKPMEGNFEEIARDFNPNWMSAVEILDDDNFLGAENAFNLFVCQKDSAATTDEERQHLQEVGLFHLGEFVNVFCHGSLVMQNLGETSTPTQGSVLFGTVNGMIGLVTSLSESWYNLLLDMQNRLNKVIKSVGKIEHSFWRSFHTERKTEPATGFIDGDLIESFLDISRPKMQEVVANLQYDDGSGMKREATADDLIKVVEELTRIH

Row | Structure (SMILES) | IC50 [1] | % BRD4 degradation (BRD4; 0.0003 uM) | % BRD4 degradation (BRD4; 0.001 uM) | % BRD4 degradation (BRD4; 0.003 uM) | % BRD4 degradation (BRD4; 0.01 uM) | % BRD4 degradation (BRD4; 0.03 uM) | % BRD4 degradation (BRD4; 0.1 uM) | % BRD4 degradation (BRD4; 0.3 uM) | % BRD4 degradation (BRD4; 1 uM)
1 | O=C1CCC(N2C(=O)Cc3ccccc32)C(=O)N1 (stereo not drawn) [Compound 3, 3-(2-Oxo-2,3-dihydro-1H-indol-1-yl)piperidine-2,6-dione] | > 100 µM |  |  |  |  |  |  |  | 
2 | Cc1sc2c(c1C)C(c1ccc(Cl)cc1)=N[C@@H](CC(=O)NCCOCCOCCCc1ccc3c(c1)n(C)c(=O)n3C1CCC(=O)NC1=O)c1nnc(C)n1-2 (stereo partly drawn) [Compound I-35, 2-((S)-4-(4-chlorophenyl)-2,3,9-trimethyl-6H-thieno[3,2-f][1,2,4]triazolo[4,3-a][1,4]diazepin-6-yl)-N-(2-(2-(3-(1-(2,6-dioxopiperidin-3-yl)-3-methyl-2-oxo-2,3-dihydro-1H-benzo[d]imidazol-5-yl)propoxy)ethoxy)ethyl)acetamide] |  | B (60 to 80 percent protein degradation) | A (greater than 80 percent protein degradation) | A (greater than 80 percent protein degradation) | A (greater than 80 percent protein degradation) | A (greater than 80 percent protein degradation) | A (greater than 80 percent protein degradation) | A (greater than 80 percent protein degradation) | A (greater than 80 percent protein degradation)
3 | Cc1sc2c(c1C)C(c1ccc(Cl)cc1)=N[C@@H](CC(=O)NCCOCCOCCCc1cccc3c1n(C)c(=O)n3C1CCC(=O)NC1=O)c1nnc(C)n1-2 (stereo partly drawn) [Compound I-36, 2-((S)-4-(4-chlorophenyl)-2,3,9-trimethyl-6H-thieno[3,2-f][1,2,4]triazolo[4,3-a][1,4]diazepin-6-yl)-N-(2-(2-(3-(1-(2,6-dioxopiperidin-3-yl)-3-methyl-2-oxo-2,3-dihydro-1H-benzo[d]imidazol-4-yl)propoxy)ethoxy)ethyl)acetamide] |  | C (40 to 60 percent protein degradation) | C (40 to 60 percent protein degradation) | C (40 to 60 percent protein degradation) | C (40 to 60 percent protein degradation) | B (60 to 80 percent protein degradation) | B (60 to 80 percent protein degradation) | B (60 to 80 percent protein degradation) | B (60 to 80 percent protein degradation)
4 | Cc1sc2c(c1C)C(c1ccc(Cl)cc1)=N[C@@H](CC(=O)NCCOCCOCCOCCn1c(=O)n(C3CCC(=O)NC3=O)c3ccccc31)c1nnc(C)n1-2 (stereo partly drawn) [Compound I-37, 2-((S)-4-(4-Chlorophenyl)-2,3,9-trimethyl-6H-thieno[3,2-f][1,2,4]triazolo[4,3-a][1,4]diazepin-6-yl)-N-(2-(2-(2-(2-(3-(2,6-dioxopiperidin-3-yl)-2-oxo-2,3-dihydro-1H-benzo[d]imidazol-1-yl)ethoxy)ethoxy)ethoxy)ethyl)acetamide] |  | B (60 to 80 percent protein degradation) | B (60 to 80 percent protein degradation) | A (greater than 80 percent protein degradation) | A (greater than 80 percent protein degradation) | A (greater than 80 percent protein degradation) | A (greater than 80 percent protein degradation) | A (greater than 80 percent protein degradation) | A (greater than 80 percent protein degradation)
5 | Cc1sc2c(c1C)C(c1ccc(Cl)cc1)=N[C@@H](CC(=O)NCCOCCOCCn1c(=O)n(C3CCC(=O)NC3=O)c3ccccc31)c1nnc(C)n1-2 (stereo partly drawn) [Compound I-38, 2-((S)-4-(4-chlorophenyl)-2,3,9-trimethyl-6H-thieno[3,2-f][1,2,4]triazolo[4,3-a][1,4]diazepin-6-yl)-N-(2-(2-(2-(3-(2,6-dioxopiperidin-3-yl)-2-oxo-2,3-dihydro-1H-benzo[d]imidazol-1-yl)ethoxy)ethoxy)ethyl)acetamide] |  | D (less than 40 percent protein degradation) | B (60 to 80 percent protein degradation) | A (greater than 80 percent protein degradation) | A (greater than 80 percent protein degradation) | A (greater than 80 percent protein degradation) | A (greater than 80 percent protein degradation) | A (greater than 80 percent protein degradation) | A (greater than 80 percent protein degradation)
